Source: US20210070748A1, “INHIBITORS OF BRUTONS TYROSINE KINASE” (Pharmacyclics LLC, priority 2015, published 2021)

How the values were obtained:
Format in all cases: biochemical
LCK = LCK (Homo sapiens, UniProt P06239); assay: Inhibition of a panel of kinases, in vitro HotSpot kinase assay: LCK; conditions: D-compounds panel data; 1 μM ATP; read-out: IC50 LCK
TEC = target: T1, TEC (Homo sapiens, UniProt P42680); assay: Inhibition of a panel of kinases, in vitro HotSpot kinase assay: TEC; conditions: D-compounds panel data; 1 μM ATP
T1 sequence (P42680 1-631): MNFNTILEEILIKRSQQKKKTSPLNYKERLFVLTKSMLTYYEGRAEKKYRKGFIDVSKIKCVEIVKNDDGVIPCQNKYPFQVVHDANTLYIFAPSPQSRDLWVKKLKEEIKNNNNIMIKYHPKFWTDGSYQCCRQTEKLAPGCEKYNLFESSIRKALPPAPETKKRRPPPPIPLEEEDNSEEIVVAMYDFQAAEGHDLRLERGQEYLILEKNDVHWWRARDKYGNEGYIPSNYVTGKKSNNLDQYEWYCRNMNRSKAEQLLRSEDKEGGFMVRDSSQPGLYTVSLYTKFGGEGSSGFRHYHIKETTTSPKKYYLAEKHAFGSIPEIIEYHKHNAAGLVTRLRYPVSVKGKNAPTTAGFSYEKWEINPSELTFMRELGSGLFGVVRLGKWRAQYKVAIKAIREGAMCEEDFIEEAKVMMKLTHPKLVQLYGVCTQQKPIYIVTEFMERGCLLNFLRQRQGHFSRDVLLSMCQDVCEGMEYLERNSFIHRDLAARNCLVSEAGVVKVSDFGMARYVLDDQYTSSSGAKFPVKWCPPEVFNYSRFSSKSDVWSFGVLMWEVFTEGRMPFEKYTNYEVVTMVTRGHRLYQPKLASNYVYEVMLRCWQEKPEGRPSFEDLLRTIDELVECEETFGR
Procedure: (§1) The degree of inhibition of a panel of kinases is determined using the in vitro HotSpot kinase assay (purified enzymes, ^33P-ATP, an appropriate substrate and 1 μM ATP).

SRC = SRC (Homo sapiens, UniProt P12931); assay: Inhibition of a panel of kinases, in vitro HotSpot kinase assay: SRC; conditions: D-compounds panel data; 1 μM ATP
Sequence of SRC (P12931 whole entry): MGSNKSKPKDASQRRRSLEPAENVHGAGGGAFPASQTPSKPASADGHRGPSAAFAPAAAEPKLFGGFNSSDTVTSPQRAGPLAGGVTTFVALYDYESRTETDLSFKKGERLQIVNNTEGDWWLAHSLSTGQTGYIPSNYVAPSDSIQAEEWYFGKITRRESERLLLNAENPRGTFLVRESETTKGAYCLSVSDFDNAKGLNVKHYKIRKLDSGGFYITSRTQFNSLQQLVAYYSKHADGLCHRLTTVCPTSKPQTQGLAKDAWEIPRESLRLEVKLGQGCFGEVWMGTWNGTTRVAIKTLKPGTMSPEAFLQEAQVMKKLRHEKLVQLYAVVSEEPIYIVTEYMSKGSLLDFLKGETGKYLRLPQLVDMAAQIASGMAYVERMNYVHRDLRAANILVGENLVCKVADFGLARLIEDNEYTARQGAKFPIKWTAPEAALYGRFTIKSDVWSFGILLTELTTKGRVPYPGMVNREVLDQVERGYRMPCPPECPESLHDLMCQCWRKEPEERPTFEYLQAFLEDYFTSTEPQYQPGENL
Procedure: as §1

JAK3 = target: T2, JAK3 (Homo sapiens, UniProt P52333); assay: Inhibition of a panel of kinases, in vitro HotSpot kinase assay: JAK3; conditions: D-compounds panel data; 1 μM ATP; read-out: IC50 JAK3
T2 sequence (P52333 1-1124): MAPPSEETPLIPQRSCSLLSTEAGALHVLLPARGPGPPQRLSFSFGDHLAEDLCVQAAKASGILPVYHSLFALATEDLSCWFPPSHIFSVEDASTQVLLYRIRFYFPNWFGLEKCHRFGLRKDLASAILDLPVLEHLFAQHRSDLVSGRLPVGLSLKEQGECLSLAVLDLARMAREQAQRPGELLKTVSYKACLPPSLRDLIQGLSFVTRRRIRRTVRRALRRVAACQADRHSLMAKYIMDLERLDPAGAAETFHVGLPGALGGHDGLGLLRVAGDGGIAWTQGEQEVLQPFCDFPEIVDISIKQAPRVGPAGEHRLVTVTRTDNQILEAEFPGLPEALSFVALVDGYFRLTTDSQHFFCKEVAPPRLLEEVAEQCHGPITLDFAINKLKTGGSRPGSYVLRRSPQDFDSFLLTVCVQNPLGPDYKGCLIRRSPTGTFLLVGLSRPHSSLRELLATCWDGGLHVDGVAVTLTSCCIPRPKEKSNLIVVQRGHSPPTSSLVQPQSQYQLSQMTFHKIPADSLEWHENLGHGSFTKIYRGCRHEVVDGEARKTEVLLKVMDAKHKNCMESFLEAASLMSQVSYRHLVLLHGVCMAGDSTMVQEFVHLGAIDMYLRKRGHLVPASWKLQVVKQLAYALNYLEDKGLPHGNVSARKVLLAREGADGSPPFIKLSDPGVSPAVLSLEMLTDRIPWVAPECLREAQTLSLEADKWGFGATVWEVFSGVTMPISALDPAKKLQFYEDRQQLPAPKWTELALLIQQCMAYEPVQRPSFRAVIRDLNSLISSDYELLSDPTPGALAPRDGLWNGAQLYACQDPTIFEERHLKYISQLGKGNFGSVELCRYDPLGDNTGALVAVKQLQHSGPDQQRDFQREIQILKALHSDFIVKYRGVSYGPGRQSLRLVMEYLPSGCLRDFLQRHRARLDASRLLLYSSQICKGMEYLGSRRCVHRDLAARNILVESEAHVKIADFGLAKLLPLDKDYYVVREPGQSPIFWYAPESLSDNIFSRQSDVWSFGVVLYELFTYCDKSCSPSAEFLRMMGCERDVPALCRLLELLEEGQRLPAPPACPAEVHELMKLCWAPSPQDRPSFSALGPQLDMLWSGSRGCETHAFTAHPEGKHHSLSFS

ITK = target: T3, ITK (Homo sapiens, UniProt Q08881); assay: Inhibition of a panel of kinases, in vitro HotSpot kinase assay: ITK; conditions: D-compounds panel data; 1 μM ATP
T3 sequence (Q08881 1-620): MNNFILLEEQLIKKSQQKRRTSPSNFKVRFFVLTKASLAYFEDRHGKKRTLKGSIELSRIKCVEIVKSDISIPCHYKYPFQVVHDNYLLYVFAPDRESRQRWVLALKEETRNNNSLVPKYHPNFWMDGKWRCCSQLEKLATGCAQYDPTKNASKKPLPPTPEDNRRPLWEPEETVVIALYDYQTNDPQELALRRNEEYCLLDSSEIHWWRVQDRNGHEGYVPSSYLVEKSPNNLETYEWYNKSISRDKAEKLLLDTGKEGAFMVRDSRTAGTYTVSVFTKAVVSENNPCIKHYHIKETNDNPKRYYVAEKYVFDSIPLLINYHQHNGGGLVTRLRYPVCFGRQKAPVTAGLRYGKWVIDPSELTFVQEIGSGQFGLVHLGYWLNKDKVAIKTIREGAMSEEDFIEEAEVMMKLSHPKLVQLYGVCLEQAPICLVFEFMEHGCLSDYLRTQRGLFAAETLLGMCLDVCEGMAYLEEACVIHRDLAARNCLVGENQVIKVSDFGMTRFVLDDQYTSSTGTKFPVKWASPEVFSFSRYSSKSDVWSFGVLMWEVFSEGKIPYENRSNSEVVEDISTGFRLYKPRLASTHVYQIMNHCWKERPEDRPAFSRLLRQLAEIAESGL
Procedure: as §1

Sequence of LCK (P06239 whole entry): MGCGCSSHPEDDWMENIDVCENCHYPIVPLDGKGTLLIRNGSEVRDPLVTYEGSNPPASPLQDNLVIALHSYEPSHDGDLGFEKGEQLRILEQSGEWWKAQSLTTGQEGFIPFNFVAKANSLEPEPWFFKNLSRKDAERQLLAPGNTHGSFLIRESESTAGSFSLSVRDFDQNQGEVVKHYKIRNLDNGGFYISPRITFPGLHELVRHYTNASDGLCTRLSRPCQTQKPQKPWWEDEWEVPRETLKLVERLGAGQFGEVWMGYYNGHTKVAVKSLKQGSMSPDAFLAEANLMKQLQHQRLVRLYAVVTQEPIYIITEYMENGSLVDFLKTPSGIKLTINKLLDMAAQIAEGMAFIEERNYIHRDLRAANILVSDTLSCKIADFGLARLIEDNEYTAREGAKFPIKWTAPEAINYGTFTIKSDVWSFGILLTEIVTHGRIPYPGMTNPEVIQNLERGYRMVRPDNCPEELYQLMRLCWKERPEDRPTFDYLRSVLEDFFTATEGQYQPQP

IC50 (LCK) [nM] | IC50 (TEC) [nM] | IC50 (SRC) [nM] | IC50 (JAK3) [nM] | IC50 (ITK) [nM] | Structure (SMILES)
100 to 1000 | 100 to 1000 | 100 to 1000 | 1000 to 10000 | > 10000 | Cn1cc(Nc2nc(N3CCCC4(C3)CN(c3ccc(C5CC5)cc3)C(=O)O4)cnc2C(N)=O)cn1 [Example D-147, 5-[3-(4-cyclopropylphenyl)-2-oxo-1-oxa-3,7-diazaspiro[4.5]decan-7-yl]-3-[(1-methyl-1H-pyrazol-4-yl)amino]pyrazine-2-carboxamide]
10 to 100 | ≤ 10 | 10 to 100 | 100 to 1000 | 10 to 100 | C[C@@H]1CC[C@H](NC(=O)c2ccc(C3CC3)cc2)CN1c1cnc(C(N)=O)c(Nc2ccc(N3CCN(C)CC3)cc2)n1 [Example D-153, 5-[(2R,5S)-5-(4-cyclopropylbenzamido)-2-methylpiperidin-1-yl]-3-{[4-(4-methylpiperazin-1-yl)phenyl]amino}pyrazine-2-carboxamide]

Structure (SMILES) | IC50 (LCK) [nM] | IC50 (TEC) [nM] | IC50 (SRC) [nM] | IC50 (JAK3) [nM] | IC50 (ITK) [nM]
C[C@@H]1[C@H](NC(=O)c2ccc(C3CC3)cc2F)CCCN1c1cnc(C(N)=O)c(Nc2ccc(C3(C)CCN(C4CCC4)CC3)cc2)n1 [Example D-134, 3-{[4-(1-cyclobutyl-4-methylpiperidin-4-yl)phenyl]amino}-5-[(2R,3R)-3-(4-cyclopropyl-2-fluorobenzamido)-2-methylpiperidin-1-yl]pyrazine-2-carboxamide] | 10 to 100 | 10 to 100 | 10 to 100 | 100 to 1000 | 10 to 100
